# Assay results from patent US20240318160A1 (Wisconsin Alumni Research Foundation, priority 2023, published 2024).
# What was measured:
# Type in all cases: biochemical
# [1] = system: Ecdeiocolea monostachya EmoPAL, wild type; experiment: TAL and PAL enzyme kinetics; conditions: PAL assay (L-Phe), pH 8.5, 30° C.
# Protocol: (§1) A mixture containing 100 mM Tris-HCl (pH 8.5), 1% glycerol, and purified enzyme in a total volume of 50 μl was preincubated for 3 min at 30° C. […] The reactions were terminated by addition of 6N acetic acid (10 μl).
# (§2) The kinetic parameters of the recombinant enzymes were determined using HPLC. Reaction mixtures containing 100 mM Tris-HCl (pH 8.5), 1% glycerol, and purified enzyme (0.15 μg for PAL assay and 1 μg for TAL assay) in a 50 μl total volume were preincubated for 3 min at 30° C. […] After 10 min and 20 min incubations for PAL and TAL assay, respectively, at 30° C., the reaction was terminated by addition of 6N acetic acid (10 μl). […] The products were quantified using calibration curves generated using authentic standards. Non-linear hyperbolic regression analyses were conducted using the Excel Solver tool to calculate Km and Vmax values.
# [2] = system: Streptochaeta angustifolia SaPTAL-b variant H126F (SaPTAL-b^H126F); experiment: TAL and PAL enzyme kinetics; conditions: PAL assay (L-Phe), pH 8.5, 30° C.
# Protocol: as §1, §2
# [3] = system: Sorghum bicolor SbPAL, wild type; experiment: TAL and PAL enzyme kinetics; conditions: PAL assay (L-Phe), pH 8.5, 30° C.
# Protocol: as §1, §2
# [4] = system: Ecdeiocolea monostachya EmoPTAL, wild type; experiment: TAL and PAL enzyme kinetics; conditions: PAL assay (L-Phe), pH 8.5, 30° C.
# Protocol: as §1, §2
# [5] = system: Ecdeiocolea monostachya EmoPAL variant F134H (EmoPAL^F134H); experiment: TAL and PAL enzyme kinetics; conditions: PAL assay (L-Phe), pH 8.5, 30° C.
# Protocol: as §1, §2
# [6] = system: Ecdeiocolea monostachya EmoPTAL variant H127F (EmoPTAL^H127F); experiment: TAL and PAL enzyme kinetics; conditions: PAL assay (L-Phe), pH 8.5, 30° C.
# Protocol: as §1, §2
# [7] = system: Joinvillea ascendens JaPTAL (SEQ ID NO: 27) variant H125F/I97S (JaPTAL^H125F_I97S); experiment: TAL and PAL enzyme kinetics; conditions: PAL assay (L-Phe), pH 8.5, 30° C.
# Protocol: as §1, §2
# [8] = system: Sorghum bicolor SbPAL variant F135H (SbPAL^F135H); experiment: TAL and PAL enzyme kinetics; conditions: PAL assay (L-Phe), pH 8.5, 30° C.
# Protocol: as §1, §2
# [9] = system: Streptochaeta angustifolia SaPTAL-b, wild type; experiment: TAL and PAL enzyme kinetics; conditions: PAL assay (L-Phe), pH 8.5, 30° C.
# Protocol: as §1, §2
# [10] = system: Joinvillea ascendens JaPTAL (SEQ ID NO: 27) variant H125F (JaPTAL^H125F); experiment: TAL and PAL enzyme kinetics; conditions: PAL assay (L-Phe), pH 8.5, 30° C.
# Protocol: as §1, §2
# [11] = system: Streptochaeta angustifolia SaPTAL-a variant H118F (SaPTAL-a^H118F); experiment: TAL and PAL enzyme kinetics; conditions: PAL assay (L-Phe), pH 8.5, 30° C.
# Protocol: as §1, §2
# [12] = system: Streptochaeta angustifolia SaPTAL-a, wild type; experiment: TAL and PAL enzyme kinetics; conditions: PAL assay (L-Phe), pH 8.5, 30° C.
# Protocol: as §1, §2
# [13] = system: PAL^F140H mutants (JaPAL^F140H, EmoPAL^F134H, BdPAL^F137H, SbPAL^F135H); experiment: TAL and PAL enzyme kinetics, group of enzymes; conditions: PAL activity, on average
# Protocol: as §2
# grass PTAL enzymes = experiment: TAL and PAL enzyme kinetics, group of enzymes; conditions: PAL activity (L-Phe), range over grass PTAL enzymes
# Protocol: as §2
# [14] = system: Joinvillea ascendens JaPAL variant F140H/S112I (JaPAL^F140H_S112I), SEQ ID NO: 145; experiment: TAL and PAL enzyme kinetics; conditions: PAL assay (L-Phe), pH 8.5, 30° C.
# Protocol: (§3) To test this hypothesis further, the reciprocal S112I mutation was introduced into the JaPAL^F140H single mutant to generate the JaPAL^F140H_S112I double mutant. For comparison, a single mutant in which the residue corresponding to Ser112 was converted to Ile (i.e., JaPAL^S112I) was generated as well.
# as §1, §2
# [15] = system: Joinvillea ascendens JaPAL variant S112I (JaPAL^S112I), SEQ ID NO: 258; experiment: TAL and PAL enzyme kinetics; conditions: PAL assay (L-Phe), pH 8.5, 30° C.
# Protocol: as §3, §1, §2
structure (smiles),measurement,setting,value
"N[C@@H](Cc1ccccc1)C(=O)O [L-Phe, phenylalanine]",Km,[1],27.7 ± 1.9 µM
same,kcat,[1],1.23 ± 0.02 s⁻¹
same,kcat/Km,[1],44700 ± 2390 M⁻¹ s⁻¹
same,Km,[2],6.3 ± 0.5 µM
same,kcat/Km,[2],37050 ± 2120 M⁻¹ s⁻¹
same,Km,[3],43.9 ± 2.7 µM
same,kcat,[3],0.97 ± 0.02 s⁻¹
same,kcat/Km,[3],22050 ± 1080 M⁻¹ s⁻¹
same,Km,[4],64.1 ± 3.1 µM
same,kcat,[4],0.48 ± 0.00 s⁻¹
same,kcat/Km,[4],7540 ± 390 M⁻¹ s⁻¹
same,Km,[5],1310 ± 25.6 µM
same,kcat,[5],0.42 ± 0.01 s⁻¹
same,kcat/Km,[5],320 ± 10 M⁻¹ s⁻¹
same,Km,[6],3.6 ± 0.5 µM
same,kcat,[6],0.12 ± 0.00 s⁻¹
same,kcat/Km,[6],32620 ± 2120 M⁻¹ s⁻¹
same,Km,[7],9.42 ± 0.8 µM
same,kcat,[7],0.02 ± 0.00 s⁻¹
same,kcat/Km,[7],1660 ± 120 M⁻¹ s⁻¹
same,Km,[8],1050 ± 58.5 µM
same,kcat,[8],0.88 ± 0.05 s⁻¹
same,kcat/Km,[8],840 ± 20 M⁻¹ s⁻¹
same,Km,[9],227.4 ± 1.5 µM
same,kcat,[9],0.56 ± 0.02 s⁻¹
same,kcat/Km,[9],2460 ± 100 M⁻¹ s⁻¹
same,Km,[10],6.8 ± 0.7 µM
same,kcat,[10],0.08 ± 0.00 s⁻¹
same,kcat/Km,[10],12280 ± 710 M⁻¹ s⁻¹
same,Km,[11],6 ± 0.8 µM
same,kcat,[11],0.20 ± 0.00 s⁻¹
same,kcat/Km,[11],33600 ± 5100 M⁻¹ s⁻¹
same,Km,[12],154 ± 3.7 µM
same,kcat,[12],0.39 ± 0.01 s⁻¹
same,kcat/Km,[12],2510 ± 30 M⁻¹ s⁻¹
same,Km toward Phe relative to corresponding wild-type enzymes,[13],35 fold
same,Km,grass PTAL enzymes,150 to 227 µM
same,Km,[14],67.3 ± 2.5 µM
same,kcat,[14],0.77 ± 0.01 s⁻¹
same,kcat/Km,[14],11460 ± 210 M⁻¹ s⁻¹
same,Km,[15],2.6 ± 0.5 µM
same,kcat,[15],0.21 ± 0.04 s⁻¹
same,kcat/Km,[15],79800 ± 0 M⁻¹ s⁻¹
